Experimental data: patent US9518038B2, “Condensation product of theanine derivative and carboxylic acid coumarin derivative, its intermediate, preparation method and use thereof” (SHANDONG YINGDONG YINGHAO BIOTECHNOLOGY, INC., priority 2012, dated 2016)

What was measured:
[1] = test system: human lung cancer cells H460; test: MTT growth inhibition, H460 cells; assay type: cell-based; details: NCI-H460, 72 h after treatment, read-out: Drug concentration (IC50) at which 50% cancer cells survived
Source text: (§1) Cell lines and cell culture: human lung cancer cells A549 and H460, human breast cancer cells MCF-7 and MDA-MB-231, human gastric cancer cells BGC-823, human prostate cancer cells PC-3, human chronic leukemia cells K562, human lymphoma cells U937, human liver cancer cells SMMC7721 and HepG2, human colon cancer cells HT29, human pancreatic cancer cells PANC-1 and BxPC3, human cervical cancer Hela cell lines, human brain tumor cells Daoy, human neuroma cells D54 and human oral epidermoid cancer cells KBV200 line with strong drug resistance, mouse melanoma cells B16, and highly metastatic Lewis lung cancer cell lines were purchased from American Type Culture Collection of the U.S. These cells were cultured with DMEM and RPMI-1640 culture solutions separately.
(§2) The procedure was as follows:
(§3) (1) 0.25% trypsin was used to digest cancer cells in a logarithmic growth phase to prepare a single-cell suspension, the concentration of cells was adjusted to 5×10^4/mL, and the adjusted suspension was inoculated into a 96-well culture plate with 100 μl per well;
(§4) (2) The culture plate was transferred into a 37° C. incubator with a saturated humidity and 5% of CO2 and cultured for 24 h; the compounds and the intermediates thereof obtained in embodiments 1-7 and the compound as represented by formula (IIIa) or the positive control anti-cancer drug with the concentration of 1-1000 μM/L were added to enable the final concentration to be 0.1-1500 μM/L. Control wells (only added with 200 μl of cell suspension) and drug-free blank control wells (containing the solvent of 0.01% DMSO) were set, each group included 8 wells, and the plate was placed into the 37° C. incubator with saturated humidity and 5% of CO2 for culturing;
(§5) (3) The 96-well plate was taken out at 48 h and 72 h after dosing, the original culture medium was carefully removed by suction, 100 μl of serum-free DMEM culture medium and 10 μl of MTT (5 mg/mL) solution were added in each well. The plate was continuously cultured for another 4 h and then the culture was terminated;
(§6) (4) The supernatant in the wells was carefully removed by suction, each well was added with 150 μl of DMSO and shaked at room temperature for 10-15 min to fully dissolve crystals.
(§7) (5) Colorimetric analysis: the wavelength was selected as 570 nm, the light absorbance (A value) of each well was determined on the microplate reader and the results were recorded; the experiment was repeated for three times;
(§8) (6) the experimental results were calculated according to the following formula: relative survival rate=(A value of each experimental group/A value of cell control group)×100%
(§9) Calculation of median-effect concentration (IC50, namely the drug concentration at which the inhibition rate is 50%, also known as half inhibitory concentration):
(§10) IC50 of the detected component was calculated by using a regression equation.

[2] = test system: human prostate cancer cells PC-3; test: MTT growth inhibition, PC-3 cells; assay type: cell-based; details: 72 h after treatment, read-out: Drug concentration (IC50) at which 50% cancer cells survived
Source text: as §1, §2, §3, §4, §5, §6, §7, §8, §9, §10

[3] = test system: human pancreatic cancer cells PANC-1; test: MTT growth inhibition, PANC-1 cells; assay type: cell-based; details: 72 h after treatment, read-out: Drug concentration (IC50) at which 50% cancer cells survived
Source text: as §1, §2, §3, §4, §5, §6, §7, §8, §9, §10

[4] = test system: human cervical cancer cells Hela xenograft; test: In-vivo growth of Hela xenografts in nude mice; parameters: species or system BALB/c nude mice; details: Mus musculus, ip, vs DMSO solvent control, read-out: Curative effect (inhibition rate %) of tumor weight; for inhibition in vivo at 60 mg/kg: 60 mg/kg intraperitoneal once a day; for inhibition in vivo at 90 mg/kg: 90 mg/kg intraperitoneal once a day
Method: RPMI1640 and DMEM culture solutions: Hyclone Company; inactivated fetal bovine serum: Hyclone Company, preserved at −20° C.; trypsin: Amersco Company; and 0.4% trypan blue: Sigma Company;
(3) Observation of growth of tumors in nude mice: the activities (including food intake, traits of urine and stool, mental state and the like) of the nude mice and the tumor growth time and growth situation of the transplanted tumors were observed every day, the body weight and the size of the tumors were measured once every 2-3 days. The long diameter a and the short diameter b (mm) of each tumor were measured by a vernier caliper to calculate the volume, wherein the volume V=π1/2·ab^2 (mm^3);
(4) sacrifice of animals: the mice were anesthetized and photoed after treatment experiments; the nude mice were sacrificed by breaking neck, the tumor tissues were stripped under sterile conditions and the weight of the tumors was weighed; and the effects of the drugs on pathology and toxicity of the various organs and tissues were detected.

[5] = test system: H-Ras; test: Western Blotting, H-Ras level; assay type: cell-based; details: human liver cancer cells, Lewis lung cancer cells and other cancer cell lines and tumor tissues, read-out: Effective concentration (IC50) for inhibition of H-Ras
Source text: (§11) Antibodies: primary antibodies of VEGFR, EGFR, c-Met, K-Ras, H-Ras, Akt, NF-κB, Cyclin D1, ER-alpha, Dvl-1, Dvl-2, Dvl-3, MMP-9, MMP2, β-catenin, Bcl-2, Bax, p53, p21, E-cadherin and Caspase3 protein, purchased from American Cell Signaling Technology Company and Santa Cruz Technology Company; and H3 acetylation, H4 acetylation and HDAC (HDAC3, HDAC4 and the like) Antibody Sample Kits, purchased from Cell Signaling Technology Company of the U.S.
(§12) (3) polyacrylamide gel electrophoresis (SDS-PAGE): an equal amount of protein lysate sample was used to separate protein, film transfer, and blocking, treated with appropriate primary antibodies and secondary antibodies in sequence, and the film was washed, then the color was developed with ECL kit, and a blot protein band was detected by exposure of an X-ray film; and a Gel-Pro Analyzer was used for quantitative analysis of gray degree, optical density value of the control group and the drug treatment group in various concentration were respectively compared with that of internal reference, the obtained ratios were respectively compared with the control group, and the protein expression level was semi-quantified.

[6] = test system: VEGFR1; test: Western Blotting, VEGFR1 level; assay type: cell-based; details: human liver cancer cells, Lewis lung cancer cells and other cancer cell lines and tumor tissues, read-out: Effective concentration (IC50) for inhibition of VEGFR1
Source text: as §11, §12

[7] = test system: HDAC3; test: Western Blotting, HDAC3 level; assay type: cell-based; details: human liver cancer cells, Lewis lung cancer cells and other cancer cell lines and tumor tissues, read-out: Effective concentration (IC50) for inhibition of HDAC3
Source text: as §11, §12

[8] = test system: HDAC4; test: Western Blotting, HDAC4 level; assay type: cell-based; details: human liver cancer cells, Lewis lung cancer cells and other cancer cell lines and tumor tissues, read-out: Effective concentration (IC50) for inhibition of HDAC4
Source text: as §11, §12

[9] = test system: p53; test: Western Blotting, increase of p53 level; assay type: cell-based; details: liver cancer cells, Lewis lung cancer cells and other cancer cell lines and tumor tissue protein lysates, 48 h treatment, read-out: Effective concentration to increase p53 by 50%
Source text: as §11, §12

[10] = test system: E-cadherin; test: Western Blotting, increase of E-cadherin level; assay type: cell-based; details: liver cancer cells, Lewis lung cancer cells and other cancer cell lines and tumor tissue protein lysates, 48 h treatment, read-out: Effective concentration to increase E-cadherin by 50%
Source text: as §11, §12

[11] = test system: HDAC4; test: HDAC4 enzyme activity in nuclear extracts of human tumor xenografts of treated mice; details: second value of the pair HDAC3 and HDAC4, SAHA 25 mg/kg
Method: For the detection of the effect of the drugs on enzyme activity of EZH2 and HDAC of in-vivo tumors, the tumors were separately excised after 6 h of medication, total proteins and nucleoproteins were extracted separately to detect and analyze the activity of the enzyme.
(2) 50 μl of diluted sample solution was added into each reaction well, the plate was sealed with a plate-sealing film and reacted at room temperature for 30 min;
(3) the plate-sealing film was carefully peeled off, the liquid was removed, dried, 150 μl of washing liquid was added into each well, stood for 30 s, then the liquid was removed, repeated twice, and dried;
(4) 2 μl of HDAC enzyme or tumor tissue nuclear extracts was respectively uniformly mixed with 28 μl of diluted sample solution, added into the wells, the plate was sealed with the plate-sealing film and reacted at 37° C. for 60 min;
(5) the plate was washed for three times, wherein the operation was the same as that in (3); and a diluted antibody capture working solution was added into each reaction well according to 50 μl/well and reacted on a shaking bed at room temperature for 60 min;
(6) the plate was washed for four times, wherein the operation was the same as that in (3);
(7) a diluted antibody detection working solution was added into each reaction well according to 50 μl/well and reacted at room temperature for 30 min;
(8) the plate was washed for five times, wherein the operation was the same as that in (3);
a color developing agent was added according to 100 μl/well, and performed dark development for 2-10 min;
(9) 50 μl of stop solution was added into each well for stopping the reaction when the color in the well with a standard product turned blue with medium intensity, the color immediately turned yellow from blue after the addition;
(10) the light absorbance (OD value) of each well was measured in sequence at the wavelength of 450 nm; wherein the measurement should be performed within 15 min after addition of the stop solution; and

Row | SMILES | IC50 [1] | IC50 [2] | IC50 [3] | inhibition in vivo at 60 mg/kg [4] | inhibition in vivo at 90 mg/kg [4] | IC50 [5] | IC50 [6] | IC50 [7] | IC50 [8] | EC50 [9] | EC50 [10] | decrease of HDAC4 enzyme activity/inhibition rate ([11]; A549 tumor grown in vivo) | decrease of HDAC4 enzyme activity/inhibition rate ([11]; MCF7 tumor grown in vivo) | decrease of HDAC4 enzyme activity/inhibition rate ([11]; MDA-MB231 tumor grown in vivo) | decrease of HDAC4 enzyme activity/inhibition rate ([11]; SMMC7721 tumor grown in vivo)
1 | CCNC(=O)CCC(NC(=O)c1cc2cc([N+](=O)[O-])ccc2oc1=O)C(=O)OCC (stereo in doubt) [Compound If, (R)-2-(6-nitro-2-oxo-2H-benzopyran-3-carboxamido)-5-ethylamino-5-oxo-pentanoic acid ethyl ester] | 100 µM | 171 µM | 77 µM | 50.9% | 66.8% | < 55 µM | < 90 µM | < 55 µM | < 45 µM | < 65 µM | < 65 µM | 75%*(A549)- | 69%*(MCF7) | 67%*(MDA-MB231) | 68%*(SMMC7721);
2 | CCNC(=O)CC[C@@H](NC(=O)c1cc2cc(Br)ccc2oc1=O)C(=O)OCC [Compound Id, (R)-2-(6-Br-2-oxo-2H-benzopyran-3-carboxamido)-5-ethylamino-5-oxo-pentanoic acid ethyl ester] | 101 µM | 110 µM | 55 µM | 57.9% | 71.9% | < 60 µM | < 100 µM | < 65 µM | < 50 µM | < 100 µM | < 65 µM | 73%*(A549)- | 63%*(MCF7) | 65%*(MDA-MB231) | 67%*(SMMC7721);
3 | CCNC(=O)CC[C@@H](NC(=O)c1cc2cc(Cl)ccc2oc1=O)C(=O)OCC [Compound Ic, (R)-2-(6-CI-2-oxo-2H-benzopyran-3-carboxamido)-5-ethylamino-5-oxo-pentanoic acid ethyl ester] | 106 ± 50 µM | 105 µM | 54 µM | 53.7% | 65.8% | < 65 µM | < 100 µM | < 65 µM | < 50 µM | < 100 µM | < 65 µM | 73%*(A549)- | 63%*(MCF7) | 65%*(MDA-MB231) | 67%*(SMMC-7721);
4 | CCNC(=O)CCC(NC(=O)c1cc2ccccc2oc1=O)C(=O)OCC (centres unmarked) [Compound Ib, ethyl 5-ethylamino-5-oxo-2-(2-oxo-2H-benzopyran-3-carboxamido)pentanoate] | 113 µM | 125 µM | 65 µM | 53.9% | 63.8% | < 75 µM | < 120 µM | < 70 µM | < 60 µM | < 120 µM | < 70 µM | 62%*(A549)- | – | – | 61%*(SMMC-7721)
5 | CCNC(=O)CCC(NC(=O)c1cc2ccccc2oc1=O)C(=O)OC (centres unmarked) [Compound Ia, methyl 5-ethylamino-5-oxo-2-(2-oxo-2H-benzopyran-3-carboxamido)pentanoate] | 230 µM | 146 µM | 67 ± 30 µM | 54.7% | 62.9% | < 85 µM | < 125 µM | < 75 µM | < 65 µM | < 125 µM | < 75 µM | – | – | – | 58%*(SMMC7721)
6 | CCNC(=O)CC[C@H](N)C(=O)OC [Compound IIa, theanine methyl ester] | 500 ± 40 µM | 350 µM | 280 µM | 38.7% | 38.7% | – | – | – | – | – | – | – | – | – | –
7 | CCNC(=O)CC[C@H](N)C(=O)OCC [Compound IIb, theanine ethyl ester] | 400 ± 10 µM | 400 µM | 400 µM | 41.7% | 41.7% | – | – | – | – | – | – | – | – | – | –
